# Experimental data reported in ChEMBL document CHEMBL3091437, “Peptide conjugates of 4-aminocyclophosphamide as prodrugs of phosphoramide mustard for selective activation by prostate-specific antigen (PSA)” (Bioorg Med Chem, 2013).
# Numbered stars: 1 amine (or outer) side, 2 acyl side, 3 side chain; on linkers, the order of the positions; unused ones are H or OH. Square brackets hold non-standard residues; d marks the D form. Peptide text beside a SMILES is read from it. * marks the point of attachment. Doxorubicin(3'-N) = COc1cccc2c1C(=O)c1c(O)c3c(c(O)c1C2=O)C[C@@](O)(C(=O)CO)C[C@@H]3O[C@H]1C[C@H](N*)[C@H](O)[C@H](C)O1; X1 = O=P1(N(CCCl)CCCl)N[C@@H](N*)CCO1; Glutaryl = O=C(CCCC(=O)[*:2])[*:1]; Hyp = O=C(O)[C@@H]1C[C@@H](O)CN1; Chg = N[C@H](C(=O)O)C1CCCCC1; Suc = O=C(CCC(=O)[*:2])[*:1]
# How the values were obtained:
# [1] = target: T1, Prostate-specific antigen (PSA) (Homo sapiens, UniProt P07288); assay: Drug metabolism assessed as PSA (unknown origin)-mediated digestion assessed as compound remaining after 4 hrs by HPLC analysis; assay type: ADME; settings: PSA (prostate-specific antigen) enzyme, read-out: Drug metabolism
# T1 sequence (P07288 whole entry): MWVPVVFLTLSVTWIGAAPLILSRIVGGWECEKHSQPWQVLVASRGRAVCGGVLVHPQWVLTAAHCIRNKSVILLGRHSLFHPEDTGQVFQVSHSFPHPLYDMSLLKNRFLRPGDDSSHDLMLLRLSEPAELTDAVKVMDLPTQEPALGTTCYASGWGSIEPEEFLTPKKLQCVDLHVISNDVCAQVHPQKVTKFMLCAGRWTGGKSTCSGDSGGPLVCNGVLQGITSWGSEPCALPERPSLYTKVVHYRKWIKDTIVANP
# [2] = target: T2, Prostate-specific antigen (Homo sapiens, UniProt P07288); assay: Prodrug activation assessed as PSA (unknown origin)-mediated digestion assessed as half life at 1/100 enzyme-compound molar ratio by HPLC analysis
# T2 sequence (P07288 whole entry): T1 sequence (P07288 whole entry)
# [3] = target: T2, Prostate-specific antigen; assay: Prodrug activation assessed as PSA (unknown origin)-mediated digestion assessed as glutaryl-Hyp-Ala-Ser-Chg-Gln-OH level by LC-MS analysis
# [4] = target: T1, Prostate-specific antigen (PSA); assay: Drug metabolism assessed as PSA (unknown origin)-mediated digestion assessed as compound remaining after 50 hrs by HPLC analysis; assay type: ADME; settings: PSA (prostate-specific antigen) enzyme, read-out: Drug metabolism
SMILES,remaining at 4 h [1],t1/2 [2],Drug metabolism [3],remaining at 50 h [4]
C[C@H](NC(=O)[C@@H]1C[C@@H](O)CN1C(=O)CCCC(=O)O)C(=O)N[C@@H](CO)C(=O)N[C@H](C(=O)N[C@@H](CCC(N)=O)C(=O)N[C@H]1CCOP(=O)(N(CCCl)CCCl)N1)C1CCCCC1 (some centres not stated) (Glutaryl-[Hyp]AS[Chg]Q-X1),< 10%,0.917 h,Active,–
CC(C)C[C@H](NC(=O)[C@H](CCCCN)NC(=O)[C@H](CO)NC(=O)[C@H](CO)NC(=O)[C@H](Cc1cnc[nH]1)NC(=O)CCC(=O)O)C(=O)N[C@@H](CCC(N)=O)C(=O)N[C@H]1CCOP(=O)(N(CCCl)CCCl)N1 (some centres not stated) (Suc-HSSKLQ-X1),–,6.5 h,–,–
CC(C)C[C@H](NC(=O)[C@H](CCCCN)NC(=O)[C@H](CO)NC(=O)CCC(=O)O)C(=O)N[C@@H](CCC(N)=O)C(=O)N[C@H]1CCOP(=O)(N(CCCl)CCCl)N1 (some centres not stated) (Suc-SKLQ-X1),–,12 h,–,< 10%
COc1cccc2c1C(=O)c1c(O)c3c(c(O)c1C2=O)C[C@@](O)(C(=O)CO)C[C@@H]3O[C@H]1C[C@H](NC(=O)[C@H](CC(C)C)NC(=O)[C@H](CO)NC(=O)[C@H](CCC(N)=O)NC(=O)[C@@H](NC(=O)[C@H](CO)NC(=O)[C@H](C)NC(=O)[C@@H]2C[C@@H](O)CN2C(=O)CCCC(=O)O)C2CCCCC2)[C@H](O)[C@H](C)O1 [L-377202] (Glutaryl-[Hyp]AS[Chg]QSL-{Doxorubicin(3'-N)}),–,0.5 h,–,–
